From ChEMBL document CHEMBL1909046, “DrugMatrix in vitro pharmacology data”

Legend:
[1] = molecular target: Beta-1 adrenergic receptor (Homo sapiens, UniProt P08588); experiment: DRUGMATRIX: Adrenergic beta1 radioligand binding (ligand: [125I] Cyanopindolol); type: cell membranes, CHO-K1, Membrane; conditions: cho-k1; Not Active = under 50% inhibition at 10 µM
[2] = molecular target: T1, 5-hydroxytryptamine receptor 2C (Homo sapiens, UniProt P28335); experiment: DRUGMATRIX: Serotonin (5-Hydroxytryptamine) 5-HT2C radioligand binding (ligand: [3H] Mesulergine); type: cell membranes, CHO-K1, Membrane; conditions: cho-k1; Not Active = under 50% inhibition at 10 µM
T1 sequence (P28335 whole entry): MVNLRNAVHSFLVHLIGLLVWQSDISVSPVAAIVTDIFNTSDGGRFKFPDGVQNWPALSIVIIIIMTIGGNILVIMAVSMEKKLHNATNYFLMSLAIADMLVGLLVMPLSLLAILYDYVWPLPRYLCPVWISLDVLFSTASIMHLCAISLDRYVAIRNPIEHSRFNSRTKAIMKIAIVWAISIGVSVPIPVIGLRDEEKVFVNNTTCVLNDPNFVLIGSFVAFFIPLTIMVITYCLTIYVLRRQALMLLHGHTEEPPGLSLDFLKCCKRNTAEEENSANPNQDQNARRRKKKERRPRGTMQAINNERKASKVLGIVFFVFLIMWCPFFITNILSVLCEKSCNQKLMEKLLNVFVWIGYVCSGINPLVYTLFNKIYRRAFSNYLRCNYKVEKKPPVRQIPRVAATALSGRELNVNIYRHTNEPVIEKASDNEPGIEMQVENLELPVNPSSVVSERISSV

[3] = molecular target: Sigma non-opioid intracellular receptor 1 (Homo sapiens, UniProt Q99720); experiment: DRUGMATRIX: Sigma1 radioligand binding (ligand: [3H] Haloperidol); type: cell membranes, Jurkat, Membrane; conditions: Not Active = under 50% inhibition at 10 µM
[4] = molecular target: Vascular endothelial growth factor receptor 1 (Homo sapiens, UniProt P17948); type: cell-based; conditions: huvec; note: in other assays of this panel Not Active means under 50% inhibition at 10 µM
[5] = molecular target: Cannabinoid receptor 1 (Homo sapiens, UniProt P21554); type: cell membranes, Membrane; conditions: chem-1; note: in other assays of this panel Not Active means under 50% inhibition at 10 µM
[6] = molecular target: T2, C-X-C chemokine receptor type 1 (Homo sapiens, UniProt P25024); note: in other assays of this panel Not Active means under 50% inhibition at 10 µM
T2 sequence (P25024 whole entry): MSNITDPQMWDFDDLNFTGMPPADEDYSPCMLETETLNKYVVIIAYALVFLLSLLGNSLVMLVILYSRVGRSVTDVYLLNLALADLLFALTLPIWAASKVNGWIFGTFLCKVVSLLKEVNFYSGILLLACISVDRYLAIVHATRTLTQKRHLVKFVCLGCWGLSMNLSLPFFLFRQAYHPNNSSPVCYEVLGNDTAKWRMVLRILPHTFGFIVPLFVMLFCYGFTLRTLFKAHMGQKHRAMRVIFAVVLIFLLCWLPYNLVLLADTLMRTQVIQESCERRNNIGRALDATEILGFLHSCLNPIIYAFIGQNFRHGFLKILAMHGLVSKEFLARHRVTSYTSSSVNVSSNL

[7] = molecular target: T3, C-X-C chemokine receptor type 2 (Homo sapiens, UniProt P25025); type: cell membranes, Membrane; conditions: cho-k1; note: in other assays of this panel Not Active means under 50% inhibition at 10 µM
T3 sequence (P25025 whole entry): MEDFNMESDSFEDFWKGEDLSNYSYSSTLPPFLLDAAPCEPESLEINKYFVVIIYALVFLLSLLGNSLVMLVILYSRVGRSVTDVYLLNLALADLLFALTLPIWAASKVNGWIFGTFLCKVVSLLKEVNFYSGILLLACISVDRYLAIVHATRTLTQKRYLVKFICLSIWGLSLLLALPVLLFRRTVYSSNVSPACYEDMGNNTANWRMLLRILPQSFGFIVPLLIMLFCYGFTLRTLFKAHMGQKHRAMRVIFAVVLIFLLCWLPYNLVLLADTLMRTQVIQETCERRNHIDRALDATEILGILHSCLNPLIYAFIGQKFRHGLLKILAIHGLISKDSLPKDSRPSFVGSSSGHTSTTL

[8] = DRUGMATRIX: Glutamate, NMDA, Phencyclidine radioligand binding (ligand: [3H] TCP); type: cell membranes, Rattus norvegicus, Wistar, Cerebral cortex, Membrane; conditions: Not Active = under 50% inhibition at 10 µM
[9] = DRUGMATRIX: Imidazoline I2, Central radioligand binding (ligand: [3H] Idazoxan); type: cell membranes, Rattus norvegicus, Wistar, Cerebral cortex, Membrane; conditions: Not Active = under 50% inhibition at 10 µM
[10] = molecular target: Insulin receptor (Rattus norvegicus, UniProt P15127); type: cell membranes, Wistar, Liver, Membrane; note: in other assays of this panel Not Active means under 50% inhibition at 10 µM
[11] = DRUGMATRIX: Interleukin IL-1 radioligand binding (ligand: [125I] interleukin 1beta); type: cell membranes, Membrane; conditions: nih3t3; Not Active = under 50% inhibition at 10 µM
[12] = DRUGMATRIX: Leukotriene, BLT (LTB4) radioligand binding (ligand: [3H]LTB4); type: cell membranes, Membrane; conditions: u-937; Not Active = under 50% inhibition at 10 µM
[13] = molecular target: Delta-type opioid receptor (Homo sapiens, UniProt P41143); type: cell membranes, HEK293, Membrane; conditions: hek293; note: in other assays of this panel Not Active means under 50% inhibition at 10 µM
[14] = DRUGMATRIX: Phorbol Ester radioligand binding (ligand: [3H] PDBu); type: cell membranes, Mus musculus, ICR, Brain, Membrane; conditions: Not Active = under 50% inhibition at 10 µM
[15] = molecular target: T4, Neutrophil elastase (Homo sapiens, UniProt P08246); type: tissue-based
T4 sequence (P08246 whole entry): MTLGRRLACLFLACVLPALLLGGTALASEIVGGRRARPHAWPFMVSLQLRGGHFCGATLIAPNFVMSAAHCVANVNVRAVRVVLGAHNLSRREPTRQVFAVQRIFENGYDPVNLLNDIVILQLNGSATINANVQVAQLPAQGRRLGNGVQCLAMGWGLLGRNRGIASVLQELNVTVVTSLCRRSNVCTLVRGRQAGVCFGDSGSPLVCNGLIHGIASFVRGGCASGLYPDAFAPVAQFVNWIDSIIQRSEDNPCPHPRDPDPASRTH

[16] = molecular target: Mitogen-activated protein kinase 14 (Homo sapiens, UniProt Q16539); parameters: species or system Escherichia coli
[17] = molecular target: Tyrosine-protein kinase Fyn (Homo sapiens, UniProt P06241); experiment: biochemical; type: cell-based, Insect cells; conditions: insect cells
[18] = molecular target: Tyrosine-protein kinase Lck (Homo sapiens, UniProt P06239); experiment: DRUGMATRIX: Protein Tyrosine Kinase, LCK enzyme inhibition (substrate: Poly(Glu:Tyr)); type: cell-based, Insect cells; conditions: insect cells; Not Active = under 50% inhibition at 10 µM

Chain of Insulin receptor (P15127 27-759 limits assumed): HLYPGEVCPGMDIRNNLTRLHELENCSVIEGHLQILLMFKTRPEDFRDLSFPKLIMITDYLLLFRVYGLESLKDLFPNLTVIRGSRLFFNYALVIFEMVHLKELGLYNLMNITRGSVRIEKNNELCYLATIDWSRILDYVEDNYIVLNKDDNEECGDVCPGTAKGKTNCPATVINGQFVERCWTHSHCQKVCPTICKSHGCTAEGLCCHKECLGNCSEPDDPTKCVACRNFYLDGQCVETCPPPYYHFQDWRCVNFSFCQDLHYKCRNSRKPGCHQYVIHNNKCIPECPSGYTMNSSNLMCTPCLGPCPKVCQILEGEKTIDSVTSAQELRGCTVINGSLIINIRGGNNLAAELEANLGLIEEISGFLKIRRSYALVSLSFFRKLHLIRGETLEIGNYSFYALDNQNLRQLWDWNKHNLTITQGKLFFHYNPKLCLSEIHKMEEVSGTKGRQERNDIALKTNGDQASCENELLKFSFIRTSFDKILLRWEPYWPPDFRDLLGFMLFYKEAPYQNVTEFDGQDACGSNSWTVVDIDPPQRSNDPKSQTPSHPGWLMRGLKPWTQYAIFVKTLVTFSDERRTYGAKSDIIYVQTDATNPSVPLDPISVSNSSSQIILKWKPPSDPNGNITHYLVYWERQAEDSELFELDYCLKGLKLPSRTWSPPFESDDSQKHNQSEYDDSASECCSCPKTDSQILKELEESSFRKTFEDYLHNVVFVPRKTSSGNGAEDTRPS
Chain of Insulin receptor (P15127 764-1383 limits assumed): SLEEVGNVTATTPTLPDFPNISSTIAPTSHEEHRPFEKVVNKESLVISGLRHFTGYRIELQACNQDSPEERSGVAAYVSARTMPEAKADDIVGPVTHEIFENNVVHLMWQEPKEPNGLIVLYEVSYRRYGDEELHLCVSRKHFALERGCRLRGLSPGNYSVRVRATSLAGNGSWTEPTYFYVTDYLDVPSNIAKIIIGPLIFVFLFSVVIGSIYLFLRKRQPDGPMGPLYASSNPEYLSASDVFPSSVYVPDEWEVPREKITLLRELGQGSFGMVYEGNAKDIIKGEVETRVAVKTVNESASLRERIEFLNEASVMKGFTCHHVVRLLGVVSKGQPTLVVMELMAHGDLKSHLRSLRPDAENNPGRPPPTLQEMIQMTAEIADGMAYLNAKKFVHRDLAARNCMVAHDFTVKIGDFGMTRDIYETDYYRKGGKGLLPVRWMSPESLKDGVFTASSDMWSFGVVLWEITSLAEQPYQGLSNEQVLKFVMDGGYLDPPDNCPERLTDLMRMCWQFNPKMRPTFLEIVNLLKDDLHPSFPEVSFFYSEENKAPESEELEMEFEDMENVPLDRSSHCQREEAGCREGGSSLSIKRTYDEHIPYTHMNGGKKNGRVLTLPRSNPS
Chain of Tyrosine-protein kinase Fyn (P06241 whole entry): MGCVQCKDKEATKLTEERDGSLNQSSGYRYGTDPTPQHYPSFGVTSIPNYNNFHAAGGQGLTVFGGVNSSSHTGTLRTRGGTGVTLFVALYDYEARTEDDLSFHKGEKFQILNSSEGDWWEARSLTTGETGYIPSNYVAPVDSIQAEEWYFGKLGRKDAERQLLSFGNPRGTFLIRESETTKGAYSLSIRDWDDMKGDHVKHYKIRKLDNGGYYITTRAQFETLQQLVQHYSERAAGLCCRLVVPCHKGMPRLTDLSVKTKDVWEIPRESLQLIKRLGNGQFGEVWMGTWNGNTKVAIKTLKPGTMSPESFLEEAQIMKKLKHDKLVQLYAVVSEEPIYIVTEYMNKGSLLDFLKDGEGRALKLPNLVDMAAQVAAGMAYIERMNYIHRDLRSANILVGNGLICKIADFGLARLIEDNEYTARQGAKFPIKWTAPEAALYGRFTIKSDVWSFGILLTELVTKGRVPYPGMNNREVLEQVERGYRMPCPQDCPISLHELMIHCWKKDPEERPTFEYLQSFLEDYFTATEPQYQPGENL
Chain of Beta-1 adrenergic receptor (P08588 whole entry): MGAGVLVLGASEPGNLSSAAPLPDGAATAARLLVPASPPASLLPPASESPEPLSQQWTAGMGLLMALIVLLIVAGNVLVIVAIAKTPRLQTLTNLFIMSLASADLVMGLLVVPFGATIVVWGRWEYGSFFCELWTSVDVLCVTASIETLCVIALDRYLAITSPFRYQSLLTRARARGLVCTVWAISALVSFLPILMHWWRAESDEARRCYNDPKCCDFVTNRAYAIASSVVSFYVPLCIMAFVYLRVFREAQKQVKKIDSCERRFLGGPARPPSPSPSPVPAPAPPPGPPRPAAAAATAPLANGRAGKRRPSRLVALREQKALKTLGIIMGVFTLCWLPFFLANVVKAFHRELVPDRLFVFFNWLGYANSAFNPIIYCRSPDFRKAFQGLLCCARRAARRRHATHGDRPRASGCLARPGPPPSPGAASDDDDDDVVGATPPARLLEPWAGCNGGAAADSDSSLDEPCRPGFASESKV
Chain of Delta-type opioid receptor (P41143 whole entry): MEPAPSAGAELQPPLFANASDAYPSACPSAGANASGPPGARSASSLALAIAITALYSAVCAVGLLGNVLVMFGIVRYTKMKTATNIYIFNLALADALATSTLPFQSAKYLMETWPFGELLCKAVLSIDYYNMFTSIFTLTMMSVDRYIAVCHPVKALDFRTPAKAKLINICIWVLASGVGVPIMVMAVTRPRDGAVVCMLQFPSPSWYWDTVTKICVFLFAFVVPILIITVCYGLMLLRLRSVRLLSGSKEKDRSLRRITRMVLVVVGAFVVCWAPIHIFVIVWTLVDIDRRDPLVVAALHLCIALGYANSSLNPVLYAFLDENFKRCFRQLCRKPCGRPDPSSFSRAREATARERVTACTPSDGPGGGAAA
Chain of Mitogen-activated protein kinase 14 (Q16539 whole entry): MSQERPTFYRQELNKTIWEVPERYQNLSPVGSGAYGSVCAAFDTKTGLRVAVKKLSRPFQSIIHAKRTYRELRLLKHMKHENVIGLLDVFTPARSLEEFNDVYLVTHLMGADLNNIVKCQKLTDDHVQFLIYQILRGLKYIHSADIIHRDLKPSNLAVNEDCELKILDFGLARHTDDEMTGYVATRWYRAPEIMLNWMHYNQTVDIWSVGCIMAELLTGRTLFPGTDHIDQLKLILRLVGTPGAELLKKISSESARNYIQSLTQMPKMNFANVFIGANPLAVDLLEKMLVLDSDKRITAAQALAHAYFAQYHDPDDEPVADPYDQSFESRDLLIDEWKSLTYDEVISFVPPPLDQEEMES
Chain of Sigma non-opioid intracellular receptor 1 (Q99720 whole entry): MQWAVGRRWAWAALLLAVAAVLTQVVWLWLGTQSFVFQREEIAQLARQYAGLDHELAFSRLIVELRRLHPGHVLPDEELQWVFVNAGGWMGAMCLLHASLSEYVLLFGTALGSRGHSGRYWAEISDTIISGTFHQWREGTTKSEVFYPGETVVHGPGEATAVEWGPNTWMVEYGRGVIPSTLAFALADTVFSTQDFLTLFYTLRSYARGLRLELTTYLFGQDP
Chain of Vascular endothelial growth factor receptor 1 (P17948 whole entry): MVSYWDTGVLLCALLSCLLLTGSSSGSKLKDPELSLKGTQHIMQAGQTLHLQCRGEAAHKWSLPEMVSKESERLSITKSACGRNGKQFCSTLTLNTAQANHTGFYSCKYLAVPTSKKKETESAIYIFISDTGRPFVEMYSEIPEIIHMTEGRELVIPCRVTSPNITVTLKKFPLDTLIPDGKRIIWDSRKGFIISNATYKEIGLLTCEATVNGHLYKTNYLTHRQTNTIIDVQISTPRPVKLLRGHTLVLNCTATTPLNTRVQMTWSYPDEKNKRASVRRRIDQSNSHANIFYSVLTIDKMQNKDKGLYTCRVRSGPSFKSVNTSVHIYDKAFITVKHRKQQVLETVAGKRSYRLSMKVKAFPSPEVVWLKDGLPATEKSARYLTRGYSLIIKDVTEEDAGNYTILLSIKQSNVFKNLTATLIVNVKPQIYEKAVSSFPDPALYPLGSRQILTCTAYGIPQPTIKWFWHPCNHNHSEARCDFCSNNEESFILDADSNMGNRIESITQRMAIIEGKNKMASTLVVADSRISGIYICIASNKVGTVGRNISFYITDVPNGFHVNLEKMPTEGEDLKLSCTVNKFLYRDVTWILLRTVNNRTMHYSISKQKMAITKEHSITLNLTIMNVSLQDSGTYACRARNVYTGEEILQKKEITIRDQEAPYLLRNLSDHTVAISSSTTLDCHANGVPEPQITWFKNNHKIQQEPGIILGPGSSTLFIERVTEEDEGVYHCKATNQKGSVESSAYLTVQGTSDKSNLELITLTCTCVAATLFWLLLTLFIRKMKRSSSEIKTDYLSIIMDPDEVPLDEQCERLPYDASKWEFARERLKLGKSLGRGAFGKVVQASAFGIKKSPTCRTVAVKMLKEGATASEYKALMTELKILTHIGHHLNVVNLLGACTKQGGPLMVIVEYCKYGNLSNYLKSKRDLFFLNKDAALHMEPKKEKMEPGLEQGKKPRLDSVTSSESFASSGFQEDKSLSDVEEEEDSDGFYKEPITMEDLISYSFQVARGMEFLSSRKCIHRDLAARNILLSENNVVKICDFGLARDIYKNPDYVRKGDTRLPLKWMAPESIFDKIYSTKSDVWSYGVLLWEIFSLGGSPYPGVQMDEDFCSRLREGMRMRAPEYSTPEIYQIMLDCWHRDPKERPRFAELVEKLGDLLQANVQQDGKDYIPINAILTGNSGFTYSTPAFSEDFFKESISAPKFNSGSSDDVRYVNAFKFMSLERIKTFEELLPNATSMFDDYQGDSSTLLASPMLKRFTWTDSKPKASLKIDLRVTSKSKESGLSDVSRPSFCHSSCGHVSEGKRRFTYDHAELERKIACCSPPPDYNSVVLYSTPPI

Row | Structure (SMILES) | IC50 [1] | IC50 [2] | IC50 [4] | IC50 [5] | IC50 [6] | IC50 [7] | IC50 [8] | Ki [8] | IC50 [9] | Ki [9] | IC50 [10] | IC50 [11] | Ki [11] | IC50 [12] | Ki [12] | IC50 [13] | IC50 [14] | Ki [14] | IC50 [15] | IC50 [16] | further results
1 | CC1=Nc2ccc(Cl)cc2S(=O)(=O)N1 [DIAZOXIDE] | Not Active | Not Active | Not Active | Not Active | Not Active | Not Active | Not Active | Not Active | Not Active | Not Active | Not Active | Not Active | Not Active | Not Active | Not Active | Not Active | Not Active | Not Active | Not Active | Not Active | IC50 ([3]; jurkat): Not Active; IC50 [17]: Not Active; IC50 [18]: Not Active
2 | C=C1[C@@H]2CCC3[C@@](CC[C@@H]4[C@H](C(=O)O)C[C@@H](O[C@@H]5O[C@H](CO)[C@@H](OS(=O)(=O)[O-])[C@H](OS(=O)(=O)[O-])[C@H]5OC(=O)CC(C)C)C[C@@]34C)(C2)[C@@H]1O.[K+].[K+] (some centres not stated) [ATRACTYLOSIDE] | Not Active | Not Active | Not Active | Not Active | Not Active | Not Active | Not Active | Not Active | Not Active | Not Active | Not Active | Not Active | Not Active | Not Active | Not Active | Not Active | Not Active | Not Active | Not Active | Not Active | IC50 ([3]; jurkat): Not Active; IC50 [17]: Not Active; IC50 [18]: Not Active
3 | NS(=O)(=O)c1cc2c(cc1Cl)NCNS2(=O)=O [HYDROCHLOROTHIAZIDE] | Not Active | Not Active | Not Active | Not Active | Not Active | Not Active | Not Active | Not Active | Not Active | Not Active | Not Active | Not Active | Not Active | Not Active | Not Active | Not Active | Not Active | Not Active | Not Active | Not Active | IC50 ([3]; jurkat): Not Active; IC50 [17]: Not Active; IC50 [18]: Not Active
4 | Fc1ccc([C@@H]2CCNC[C@H]2COc2ccc3c(c2)OCO3)cc1 [PAROXETINE] | Not Active | Not Active | Not Active | Not Active | Not Active | Not Active | Not Active | Not Active | Not Active | Not Active | Not Active | Not Active | Not Active | Not Active | Not Active | Not Active | Not Active | Not Active | Not Active | Not Active | IC50 ([3]; read-out: IC50): 5.37 µM; Ki ([3]; read-out: Ki): 2.26 µM; IC50 [17]: Not Active; IC50 [18]: Not Active
5 | COc1c(N2CCNC(C)C2)c(F)cc2c(=O)c(C(=O)O)cn(C3CC3)c12 (configuration not stated) [GATIFLOXACIN] | Not Active | Not Active | Not Active | Not Active | Not Active | Not Active | Not Active | Not Active | Not Active | Not Active | Not Active | Not Active | Not Active | Not Active | Not Active | Not Active | Not Active | Not Active | Not Active | Not Active | IC50 ([3]; jurkat): Not Active; IC50 [17]: Not Active; IC50 [18]: Not Active
6 | CC[N+](CC)(CC)CCOc1cccc(OCC[N+](CC)(CC)CC)c1OCC[N+](CC)(CC)CC.[I-].[I-].[I-] [GALLAMINE TRIETHIODIDE] | Not Active | Not Active | Not Active | Not Active | Not Active | Not Active | Not Active | Not Active | Not Active | Not Active | Not Active | Not Active | Not Active | Not Active | Not Active | Not Active | Not Active | Not Active | Not Active | Not Active | IC50 ([3]; jurkat): Not Active; IC50 [17]: Not Active; IC50 [18]: Not Active
7 | Nc1nc(=O)[nH]cc1F [FLUCYTOSINE] | Not Active | Not Active | Not Active | Not Active | Not Active | Not Active | Not Active | Not Active | Not Active | Not Active | Not Active | Not Active | Not Active | Not Active | Not Active | Not Active | Not Active | Not Active | Not Active | Not Active | IC50 ([3]; jurkat): Not Active; IC50 [17]: Not Active; IC50 [18]: Not Active
